In patent publication US9611278B2 (Merck Sharp & Dohme Corp., priority 2013, dated 2017):

Biological target: T1, sGC α1/β1 heterodimer stably expressed in CHO-K1 cells (CHO-K1/sGC) (Homo sapiens, UniProt Q02108+Q02153)
T1 construct: expressed in transfected cells
T1 sequence (Q02108 1-690): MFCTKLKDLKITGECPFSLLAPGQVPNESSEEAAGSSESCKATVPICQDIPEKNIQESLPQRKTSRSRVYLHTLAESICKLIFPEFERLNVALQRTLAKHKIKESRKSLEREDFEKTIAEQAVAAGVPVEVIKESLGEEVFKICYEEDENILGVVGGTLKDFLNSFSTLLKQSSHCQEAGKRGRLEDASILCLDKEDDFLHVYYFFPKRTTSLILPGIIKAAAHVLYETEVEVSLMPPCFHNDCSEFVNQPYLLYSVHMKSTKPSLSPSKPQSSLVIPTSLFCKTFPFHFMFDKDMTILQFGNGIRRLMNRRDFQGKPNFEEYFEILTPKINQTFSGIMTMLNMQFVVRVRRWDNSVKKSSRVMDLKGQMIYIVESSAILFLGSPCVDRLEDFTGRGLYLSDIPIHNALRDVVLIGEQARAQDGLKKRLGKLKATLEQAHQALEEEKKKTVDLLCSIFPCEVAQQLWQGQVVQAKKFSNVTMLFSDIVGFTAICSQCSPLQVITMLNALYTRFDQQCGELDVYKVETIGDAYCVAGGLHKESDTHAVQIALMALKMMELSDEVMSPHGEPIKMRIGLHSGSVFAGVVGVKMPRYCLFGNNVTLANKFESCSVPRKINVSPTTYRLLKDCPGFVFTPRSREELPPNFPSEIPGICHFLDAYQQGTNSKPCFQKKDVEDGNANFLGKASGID
T1 sequence (Q02153 1-619): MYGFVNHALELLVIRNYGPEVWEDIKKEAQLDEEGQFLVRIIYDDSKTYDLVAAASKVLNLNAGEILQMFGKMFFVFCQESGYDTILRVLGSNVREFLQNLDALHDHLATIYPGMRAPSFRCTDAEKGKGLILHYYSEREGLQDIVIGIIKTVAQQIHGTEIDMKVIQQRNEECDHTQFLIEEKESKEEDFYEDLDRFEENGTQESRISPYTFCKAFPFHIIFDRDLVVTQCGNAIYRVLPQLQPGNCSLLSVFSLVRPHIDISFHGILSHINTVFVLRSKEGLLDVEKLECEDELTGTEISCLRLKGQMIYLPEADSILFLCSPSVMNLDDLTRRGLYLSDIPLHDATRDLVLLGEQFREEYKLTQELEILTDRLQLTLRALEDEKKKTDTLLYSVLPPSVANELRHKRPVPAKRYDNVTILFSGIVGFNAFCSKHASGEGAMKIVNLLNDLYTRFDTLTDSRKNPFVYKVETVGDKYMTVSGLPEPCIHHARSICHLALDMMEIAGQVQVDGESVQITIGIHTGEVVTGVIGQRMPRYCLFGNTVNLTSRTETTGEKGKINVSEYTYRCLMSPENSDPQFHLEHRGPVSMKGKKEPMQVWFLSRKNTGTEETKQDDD
Assay: Cell-based sGC Functional Assay (CASA Assay)
Conditions: for Emax: CHO-K1, activation as percentage of maximum cGMP production of Compound A (set to 100%), read-out: % Act.; for EC50: inflection point of cGMP generation in CHO-K1/sGC cells, 4P fit, 1 hr at 37° C., read-out: IP
Excerpt: sGC is a heme-containing enzyme that converts GTP to secondary messenger cGMP. Increases in cGMP levels affect several physiological processes including vasorelaxation through multiple downstream pathways. […] Heme-dependent activators (HDAs) preferentially activate sGC containing a ferrous heme group. To determine the effect of sGC activators on enzyme activity, the CASA assay was developed to monitor the generation of cGMP in a cell line that stably expresses the heterodimeric sGC protein.
A CHO-K1 cell line stably expressing the sGC α1/β1 heterodimer was generated using a standard transfection protocol. CHO-K1 cells were transfected with plasmids pIREShyghsGCα1 and pIRESneo-hsGCβ1 simultaneously using FUGENE reagent. Clones that stably express both subunits were selected with hygromycin and neomycin for ˜2 weeks. Clone #7 was chosen for the assay and was designated CHO-K1/sGC. CHO-K1/sGC cells were maintained in F-K12 medium containing 10% heat-inactivated Fetal Bovine Serum (FBS), 100 μg/mL penicillin/streptomycin, 0.5 mg/mL hygromycin and 0.25 mg/mL G418. The cells were then cryopreserved in LN2. On the day of the assay, cells thawed and resuspended in EBSS Assay Buffer (EAB, Sigma, E3024) supplemented with 5 mM MgCl2, 10 mM HEPES (4-(2-hydroxyethyl)piperazine-1-ethanesulfonic acid) and 0.05% BSA (bovine serum albumin) and cell density was then adjusted to 4×10^5/mL with EAB. IBMX (3-isobutyl-1-methylxanthin, 0.5 mM) was added to inhibit degradation of cGMP. Compounds were diluted from DMSO stock solutions and added to the assay at a final DMSO concentration of 2.5%. Cells were incubated with compounds in the presence and absence of 1 μM of Diethylenetriamine/nitric oxide adduct (DETA-NO; Sigma, 17018) for 1 hr at 37° C. At the end of the incubation period, the reaction was terminated and the cells were lysed with the detection reagents from Cisbio Kits. The level of intracellular cGMP was determined using an HTRF-based assay kit (CisBio, 62GM2PEC), which detects the displacement of a fluorescence labeled cGMP from its specific antibody. The cGMP produced by test compounds was directly compared to the maximum cGMP production (this value was set to equal 100% activation.) of the published sGC-HDA Compound A:
(Example 1 in WO 2010/065275, published Jun. 10, 2010). The test compounds' activity were then expressed as a percentage of Compound A, the standard in every experiment. This percent activation was calculated either in the presence or absence of DETA-NO which was then plotted. IP and maximum fold induction was derived using ADA analysis software for 4P fit.

Emax [%]	EC50 [nM]	Compound
120	78	Cn1ncc2c(-c3nc(N)c4c(n3)NC(=O)C4(C)c3cn(C4CCC4)nn3)nc(CCC(F)(F)C(F)(F)F)nc21 (single isomer, unassigned) [Example 74, 4-Amino-5-(1-cyclobutyl-1H-1,2,3-triazol-4-yl)-5-methyl-2-(1-methyl-6-(3,3,4,4,4-pentafluorobutyl)-1H-pyrazolo[3,4-d]pyrimidin-4-yl)-5,7-dihydro-6H-pyrrolo[2,3-d]pyrimidin-6-one]
139	175	C=CCn1cc(C2(C)C(=O)Nc3nc(-c4nc(CCC(F)(F)C(F)(F)F)nc5c4cnn5C)nc(N)c32)nn1 (single isomer, unassigned) [Example 75, 5-(1-allyl-1H-1,2,3-triazol-4-yl)-4-amino-5-methyl-2-(1-methyl-6-(3,3,4,4,4-pentafluorobutyl)-1H-pyrazolo[3,4-d]pyrimidin-4-yl)-5,7-dihydro-6H-pyrrolo[2,3-d]pyrimidin-6-one]
148	168	[2H]C([2H])([2H])n1cc(C2(C)C(=O)Nc3nc(-c4nc(CCC(F)(F)C(F)(F)F)nc5c4cnn5C([2H])([2H])[2H])nc(N)c32)nn1 (single isomer, unassigned) [Example 76, 4-Amino-5-methyl-5-(1-(methyl-d3)-1H-1,2,3-triazol-4-yl)-2-(1-(methyl-d3)-6-(3,3,4,4,4-pentafluorobutyl)-1H-pyrazolo[3,4-d]pyrimidin-4-yl)-5,7-dihydro-6H-pyrrolo[2,3-d]pyrimidin-6-one]
157	168	[2H]C([2H])([2H])n1cc(C2(C)C(=O)Nc3nc(-c4nc(CCC(F)(F)C(F)(F)F)nc5c4cnn5C)nc(N)c32)nn1 (single isomer, unassigned) [Example 77, 4-Amino-5-methyl-2-(1-methyl-6-(3,3,4,4,4-pentafluorobutyl)-1H-pyrazolo[3,4-d]pyrimidin-4-yl)-5-(1-(methyl-d3)-1H-1,2,3-triazol-4-yl)-5,7-dihydro-6H-pyrrolo[2,3-d]pyrimidin-6-one]
135	72	[2H]C([2H])([2H])n1ncc2c(-c3nc(N)c4c(n3)NC(=O)C4(C)c3ccc(F)cn3)nc(CCC(F)(F)C(F)(F)F)nc21 (stereo not shown) [Example 2, 4-Amino-5-(5-fluoropyridin-2-yl)-5-methyl-2-(1-(methyl-d3)-6-(3,3,4,4,4-pentafluorobutyl)-1H-pyrazolo[3,4-d]pyrimidin-4-yl)-5H-pyrrolo[2,3-d]pyrimidin-6(7H)-one]
88	10	Cc1noc(C2(C)C(=O)Nc3nc(-c4nc(Cc5cccc(F)c5F)nc5c4cnn5C)nc(N)c32)n1 (stereo not shown) [Example 5, 4-Amino-2-(6-(2,3-difluorobenzyl)-1-methyl-1H-pyrazolo[3,4-d]pyrimidin-4-yl)-5-methyl-5-(3-methyl-1,2,4-oxadiazol-5-yl)-5,7-dihydro-6H-pyrrolo[2,3-d]pyrimidin-6-one]
137	604	CC(CC(F)(F)F)c1nc(-c2nc(N)c3c(n2)NC(=O)C3(C)c2ccc(F)cn2)c2cnn(C)c2n1 (stereo not shown) [Example 6, 4-Amino-5-(5-fluoropyridin-2-yl)-5-methyl-2-(1-methyl-6-(4,4,4-trifluorobutan-2-yl)-1H-pyrazolo[3,4-d]pyrimidin-4-yl)-5,7-dihydro-6H-pyrrolo[2,3-d]pyrimidin-6-one]
147	212	[2H]C([2H])([2H])n1ncc2c(-c3nc(N)c4c(n3)NC(=O)C4(C)c3ccccn3)nc(CCC(F)(F)C(F)(F)F)nc21 (stereo not shown) [Example 7, 4-Amino-5-methyl-2-(1-(methyl-d3)-6-(3,3,4,4,4-pentafluorobutyl)-1H-pyrazolo[3,4-d]pyrimidin-4-yl)-5-(pyridin-2-yl)-5,7-dihydro-6H-pyrrolo[2,3-d]pyrimidin-6-one]
126	49	[2H]C([2H])([2H])n1ncc2c(-c3nc(N)c4c(n3)NC(=O)C4(C)c3nc(C4CC4)no3)nc(CCC(F)(F)C(F)(F)F)nc21 (stereo not shown) [Example 8, 4-Amino-5-(3-cyclopropyl-1,2,4-oxadiazol-5-yl)-5-methyl-2-(1-(methyl-d3)-6-(3,3,4,4,4-pentafluorobutyl)-1H-pyrazolo[3,4-d]pyrimidin-4-yl)-5,7-dihydro-6H-pyrrolo[2,3-d]pyrimidin-6-one]
121	116	[2H]C([2H])([2H])n1ncc2c(-c3nc(N)c4c(n3)NC(=O)C4(C)c3ncccn3)nc(CCC(F)(F)C(F)(F)F)nc21 (stereo not shown) [Example 9, 4-Amino-5-methyl-2-(1-(methyl-d3)-6-(3,3,4,4,4-pentafluorobutyl)-1H-pyrazolo[3,4-d]pyrimidin-4-yl)-5-(pyrimidin-2-yl)-5,7-dihydro-6H-pyrrolo[2,3-d]pyrimidin-6-one]
114	665	[2H]C([2H])([2H])n1ncc2c(-c3nc(N)c4c(n3)NC(=O)C4(C)c3ccc(C(F)(F)F)nc3)nc(CCC(F)(F)C(F)(F)F)nc21 (stereo not shown) [Example 10, 4-Amino-5-methyl-2-(1-(methyl-d3)-6-(3,3,4,4,4-pentafluorobutyl)-1H-pyrazolo[3,4-d]pyrimidin-4-yl)-5-(6-(trifluoromethyl)pyridin-3-yl)-5,7-dihydro-6H-pyrrolo[2,3-d]pyrimidin-6-one]
126	626	[2H]C([2H])([2H])n1ncc2c(-c3nc(N)c4c(n3)NC(=O)C4(C)c3coc(C)n3)nc(CCC(F)(F)C(F)(F)F)nc21 (stereo not shown) [Example 11, 4-Amino-5-methyl-2-(1-(methyl-d3)-6-(3,3,4,4,4-pentafluorobutyl)-1H-pyrazolo[3,4-d]pyrimidin-4-yl)-5-(2-methyloxazol-4-yl)-5,7-dihydro-6H-pyrrolo[2,3-d]pyrimidin-6-one]
104	–	[2H]C([2H])([2H])n1ncc2c(-c3nc(N)c4c(n3)NC(=O)C4(C)c3ccc(OC)cn3)nc(CCC(F)(F)C(F)(F)F)nc21 (stereo not shown) [Example 12, 4-Amino-5-(5-methoxypyridin-2-yl)-5-methyl-2-(1-(methyl-d3)-6-(3,3,4,4,4-pentafluorobutyl)-1H-pyrazolo[3,4-d]pyrimidin-4-yl)-5,7-dihydro-6H-pyrrolo[2,3-d]pyrimidin-6-one]
